Ends that are not written are not given here.

Test [1] deals with A. baumannii (NCTC 13301). Briefly: Murine excisional dorsal wound infection model. Type of test: in vivo, mouse. Particulars: for Survival: day 3 postinfection. As to the method:
To investigate wound-healing applications, two peptides (LP1 and LP18) were tested in a murine wound infection model.[57] Immunosuppressed mice were infected with 5 × 10^4 cells per mL of A. baumannii (NCTC 13301) at the excised dorsal wound. The peptides at 1000 times the MICs (∼10 mg/kg) were applied directly to the wound by puncturing the dressing with a syringe once a day for 7 days. After removal of the dressing, necrosis of the epidermal tissue at the wound edges and wound expansion were observed. These conditions were reduced in the LP1-treated group, followed by the LP18-treated, PBS-treated, and untreated groups (Figure S6a,b). Contractile wound healing appeared to be higher in the LP1-treated group compared to the other groups. After 20 days, LP1-treated wounds were either completely closed or had less than 10 mm^2 of overlying serocellular crust, whereas the other wounds had larger and more inflamed serocellular crusts.
Eight-to-ten-week-old female Balb/c mice (obtained from Envigo, Netherlands) were subjected to immunosuppression induction by two intraperitoneal doses of 150 and 100 mg/kg cyclophosphamide on days −4 and −1, respectively, before wounding. On day 0 of wounding, mice were anesthetized with isoflurane and the dorsal region was shaved and scrubbed with iodine solution. A full-thickness skin defect was created over the thoracic spine using a 6 mm disposable skin biopsy punch (KAI Industries Co., Ltd., Japan). Infection was established by applying 25 μL of A. baumannii NCTC 13301 (5 × 10^4 CFU/mL) applied directly to the wound and allowed to absorb for 2 min. Wound was covered with a transparent sterile dressing (Tegaderm, Deutschland GmbH, Germany) and secured with tissue adhesive (Surgibond, SMI AG, Belgium). Afterward, mice received an intramuscular injection of buprenorphine (0.05 mg/kg). […] From 10^–3, 10^–5, and 10^–7 dilutions, 100 μL of the sample was collected three times, incubated on MacConkey agar plates (Trios, Czech Republic), and analyzed for viable cell counts. […]

Another test relates to E. faecalis UCN41 (VAN). As to conditions: E. faecalis / UCN41 / VAN / Prot. b; Prot. b.
The subject of test [2] is S. aureus ATCC 29213 (Clinical). As to conditions: S. aureus / ATCC 29213 / Clinical / Prot. c; Prot. c.
The test system of test [3] is P. aeruginosa K12 (AMI, IMI, MER, CTZ, PIT). Particulars: P. aeruginosa / K12 / AMI, IMI, MER, CTZ, PIT / Prot. c; Prot. c.
In test [4] the test system is E. faecium ATCC 700221 (VAN, TEI). As to conditions: E. faecium / ATCC 700221 / VAN, TEI / Prot. d; Prot. d.
The test system of the next test is E. faecalis JH2-2 (WT). Particulars: E. faecalis / JH2-2 / WT / Prot. b; Prot. b.
Test [5] has as its system P. aeruginosa NCTC 13437 (ESBL). Particulars: P. aeruginosa / NCTC 13437 / ESBL / Prot. a; Prot. a.
In another test the test system is P. aeruginosa PA01 (WT). Particulars: P. aeruginosa / PA01 / WT / Prot. d; Prot. d.
The subject of test [6] is E. faecium BM4147 (AMX, VAN). Particulars: E. faecium / BM4147 / AMX, VAN / Prot. b; Prot. b.
Test [7] concerns K. pneumoniae ATCC 700603 (ESBL). As to conditions: K. pneumoniae / ATCC 700603 / ESBL / Prot. a; Prot. a.
Test [8] has as its system E. faecium ATCC 19434T (WT). As to conditions: E. faecium / ATCC 19434T / WT / Prot. b; Prot. b.
Test [9] concerns E. faecalis ATCC 700802 (VAN). Particulars: E. faecalis / ATCC 700802 / VAN / Prot. d; Prot. d.
In test [10] the test system is P. aeruginosa K11 (IMI, MER, CTZ, PIT). As to conditions: P. aeruginosa / K11 / IMI, MER, CTZ, PIT / Prot. c; Prot. c.
The subject of test [11] is E. faecium Z906 (VAN, TEI, LNZ). As to conditions: E. faecium / Z906 / VAN, TEI, LNZ / Prot. c; Prot. c.
The test system of a further test is P. aeruginosa PA14 (WT). As to conditions: P. aeruginosa / PA14 / WT / Prot. d; Prot. d.
Test [12] relates to S. aureus ATCC BAA-1556 (MET). Particulars: S. aureus / ATCC BAA-1556 / MET / Prot. d; Prot. d.
Test [13] deals with K. pneumoniae E1267 (GEN, AMI). Particulars: K. pneumoniae / E1267 / GEN, AMI / Prot. c; Prot. c.
The test system of test [14] is S. aureus NRS1 (MRSA or VISA). As to conditions: S. aureus / NRS1 / MRSA or VISA / Prot. a; Prot. a.

In [1], “KKKKLKKILKKLFQFINQLDNQLQDIKQNK-NH2 [LP1]” yielded a Survival of 100%. In [1] (topical, 1000 times the MIC (∼10 mg/kg) once a day for 7 days, after 20 days), the “Overlying serocellular crust of wound” value is recorded as “less than 10 mm^2”. Also, the MIC in the test with E. faecalis UCN41 (VAN) is greater than 32 µM; in test [2], greater than 32 µM; in test [3] it was greater than 32 µM; in test [4], 12.5 µM; in the test on E. faecalis JH2-2 (WT) it was greater than 32 µM; in test [5], greater than 16 µM. Besides, the MIC against P. aeruginosa PA01 (WT) was 3.1 µM; in test [6] it was 16 µM; in [7], 4 µM; in test [8], greater than 32 µM; in test [9] it was greater than 60 µM; in [10] it was greater than 32 µM. Moreover, the MIC is greater than 32 µM in test [11]; 3.1 µM against P. aeruginosa PA14 (WT); greater than 60 µM in [12]; greater than 32 µM in [13]; greater than 16 µM in test [14].
The substance “KKKKLKKILKKLFQFINQLDNQLQDIKKKK-NH2 [LP18]” registered a Survival in [1] of 100%. For the same substance, the minimal inhibitory concentration (MIC) was greater than 32 µM with E. faecalis UCN41 (VAN); greater than 32 µM in test [2]; greater than 32 µM in test [3]; greater than 60 µM in test [4]; greater than 32 µM against E. faecalis JH2-2 (WT); 11 µM in test [5]. Also, the MIC against P. aeruginosa PA01 (WT) is 3.1 µM; in test [6] it was 4 µM; in [7], 4 µM; in [8], 15 µM; in test [9] it was greater than 60 µM; in test [10], 16 µM. Also, the minimum inhibitory concentration (MIC) in test [11] is 16 µM; with P. aeruginosa PA14 (WT), 3.1 µM; in test [12] it was greater than 60 µM; in test [13], greater than 32 µM; in [14] it was greater than 16 µM.

A word on the MIC: it is the smallest concentration in the dilution series that meets the test's criterion for growth inhibition. A high value points to a need for much substance.

For the origin of these results see paper PMC11345766, “Computational Design of Pore-Forming Peptides with Potent Antimicrobial and Anticancer Activities” (Journal of Medicinal Chemistry, 2024).
